Data published in the NIST ThermoML archive (doi:10.1016/j.jct.2018.01.024).

Assay: mn = molality of the nth substance listed, in mol/kg
Conditions: Liquid

NC(N)=O [urea] + O
mass density [kg/m3]
Conditions	308.15 K	323.15 K	333.15 K
101 kPa, Vibrating tube method, m1 = 0.093	–	989.4	984.53
101 kPa, Vibrating tube method, m1 = 0.1063	–	989.59	984.72
101 kPa, Vibrating tube method, m1 = 0.141	–	990.1	985.22
101 kPa, Vibrating tube method, m1 = 0.152	–	990.26	985.38
101 kPa, Vibrating tube method, m1 = 0.1809	–	990.68	985.79
101 kPa, Vibrating tube method, m1 = 0.2423	–	991.57	986.66
101 kPa, Vibrating tube method, m1 = 0.4362	–	994.33	989.38
101 kPa, Vibrating tube method, m1 = 0.5644	–	996.13	991.15
101 kPa, Vibrating tube method, m1 = 1.008	–	1002.19	997.11
101 kPa, Vibrating tube method, m1 = 1.609	–	1010.03	1004.81
101 kPa, Vibrating tube method, m1 = 2.505	–	1020.95	1015.53
101 kPa, Vibrating tube method, m1 = 3.376	–	1030.77	1025.17
101 kPa, Vibrating tube method, m1 = 4.33	–	1040.72	1034.98
101 kPa, Vibrating tube method, m1 = 5.39	–	1050.87	1044.98
101 kPa, Vibrating tube method, m1 = 8	–	1072.6	1066.38
101 kPa, Vibrating tube method, m1 = 9.9	–	1086.08	1079.64
101 kPa, Vibrating tube method, m1 = 12.8	–	1103.59	1096.9
10000 kPa, Constant-volume piezometry, m1 = 0.1809	–	994.94	–
10000 kPa, Constant-volume piezometry, m1 = 0.4362	–	998.57	–
10000 kPa, Constant-volume piezometry, m1 = 0.5644	–	1000.36	–
10000 kPa, Constant-volume piezometry, m1 = 1.609	–	1014.19	–
10000 kPa, Constant-volume piezometry, m1 = 2.505	–	1025.05	–
10000 kPa, Constant-volume piezometry, m1 = 3.376	–	1034.82	–
10000 kPa, Constant-volume piezometry, m1 = 5.39	–	1054.83	–
10000 kPa, Constant-volume piezometry, m1 = 8	–	1076.49	–
10000 kPa, Constant-volume piezometry, m1 = 10.99	–	1096.87	–
10000 kPa, Constant-volume piezometry, m1 = 12.8	–	1107.38	–
25000 kPa, Constant-volume piezometry, m1 = 0.1809	–	1001.22	–
25000 kPa, Constant-volume piezometry, m1 = 0.4362	–	1004.83	–
25000 kPa, Constant-volume piezometry, m1 = 0.5644	–	1006.62	–
25000 kPa, Constant-volume piezometry, m1 = 1.609	–	1020.35	–
25000 kPa, Constant-volume piezometry, m1 = 2.505	–	1031.14	–
25000 kPa, Constant-volume piezometry, m1 = 3.376	–	1040.83	–
25000 kPa, Constant-volume piezometry, m1 = 5.39	–	1060.7	–
25000 kPa, Constant-volume piezometry, m1 = 8	–	1082.18	–
25000 kPa, Constant-volume piezometry, m1 = 10.99	–	1102.45	–
25000 kPa, Constant-volume piezometry, m1 = 12.8	–	1112.95	–
50000 kPa, Constant-volume piezometry, m1 = 0.1809	–	1011.26	–
50000 kPa, Constant-volume piezometry, m1 = 0.4362	1021.35	1014.82	–
50000 kPa, Constant-volume piezometry, m1 = 0.5644	1023.19	1016.57	–
50000 kPa, Constant-volume piezometry, m1 = 1.609	1037.21	1030.14	–
50000 kPa, Constant-volume piezometry, m1 = 2.505	1048.14	1040.78	–
50000 kPa, Constant-volume piezometry, m1 = 3.376	1057.95	1050.36	–
50000 kPa, Constant-volume piezometry, m1 = 5.39	1078.02	1069.99	–
50000 kPa, Constant-volume piezometry, m1 = 8	1099.83	1091.23	–
50000 kPa, Constant-volume piezometry, m1 = 10.99	1120.31	1111.32	–
50000 kPa, Constant-volume piezometry, m1 = 12.8	1130.92	1121.73	–
75000 kPa, Constant-volume piezometry, m1 = 0.1809	1027.35	1020.8	–
75000 kPa, Constant-volume piezometry, m1 = 0.4362	1030.99	1024.31	–
75000 kPa, Constant-volume piezometry, m1 = 0.5644	1032.8	1026.04	–
75000 kPa, Constant-volume piezometry, m1 = 1.609	1046.61	1039.38	–
75000 kPa, Constant-volume piezometry, m1 = 2.505	1057.37	1049.87	–
75000 kPa, Constant-volume piezometry, m1 = 3.376	1067.04	1059.32	–
75000 kPa, Constant-volume piezometry, m1 = 5.39	1086.84	1078.73	–
75000 kPa, Constant-volume piezometry, m1 = 8	1108.4	1099.84	–
75000 kPa, Constant-volume piezometry, m1 = 10.99	1128.64	1119.74	–
75000 kPa, Constant-volume piezometry, m1 = 12.8	1139.16	1130.01	–
100000 kPa, Constant-volume piezometry, m1 = 0.1809	1036.61	1029.92	–
100000 kPa, Constant-volume piezometry, m1 = 0.4362	1040.2	1033.37	–
100000 kPa, Constant-volume piezometry, m1 = 0.5644	1041.98	1035.08	–
100000 kPa, Constant-volume piezometry, m1 = 1.609	1055.64	1048.25	–
100000 kPa, Constant-volume piezometry, m1 = 2.505	1066.32	1058.62	–
100000 kPa, Constant-volume piezometry, m1 = 3.376	1075.91	1067.97	–
100000 kPa, Constant-volume piezometry, m1 = 5.39	1095.48	1087.2	–
100000 kPa, Constant-volume piezometry, m1 = 8	1116.79	1108.07	–
100000 kPa, Constant-volume piezometry, m1 = 10.99	1136.92	1127.82	–
100000 kPa, Constant-volume piezometry, m1 = 12.8	1147.3	1138.03	–
